Data published in the CheMixHub ionic liquid set.
± gives the uncertainty stated by the source.

Experiment: xn = mol fraction of the nth substance listed
Details: 100 kPa

Compound: C[N+](C)(C)Cc1ccccc1.[Cl-] + O=C([O-])c1ccccc1O.[Na+] + O
- viscosity (298.15 K, x1 = 9.698e-05, x2 = 0.001545): 0.924 ± 0.02 mPa·s
- viscosity (298.15 K, x1 = 9.701e-05, x2 = 0.00127): 0.916 ± 0.02 mPa·s
- viscosity (298.15 K, x1 = 9.703e-05, x2 = 0.0009982): 0.91 ± 0.02 mPa·s
- viscosity (298.15 K, x1 = 9.706e-05, x2 = 0.0007245): 0.905 ± 0.02 mPa·s
- viscosity (298.15 K, x1 = 9.709e-05, x2 = 0.0004525): 0.9 ± 0.02 mPa·s
- viscosity (298.15 K, x1 = 9.711e-05, x2 = 0.0001803): 0.896 ± 0.02 mPa·s
- viscosity (298.15 K, x1 = 0.0002915, x2 = 0.001548): 0.926 ± 0.02 mPa·s
- viscosity (298.15 K, x1 = 0.0002916, x2 = 0.001): 0.915 ± 0.02 mPa·s
- viscosity (298.15 K, x1 = 0.0002916, x2 = 0.001272): 0.921 ± 0.02 mPa·s
- viscosity (298.15 K, x1 = 0.0002917, x2 = 0.0007258): 0.909 ± 0.02 mPa·s
- viscosity (298.15 K, x1 = 0.0002918, x2 = 0.0004533): 0.903 ± 0.02 mPa·s
- viscosity (298.15 K, x1 = 0.0002919, x2 = 0.0001807): 0.898 ± 0.02 mPa·s
- viscosity (298.15 K, x1 = 0.0004867, x2 = 0.001551): 0.932 ± 0.02 mPa·s
- viscosity (298.15 K, x1 = 0.0004868, x2 = 0.001275): 0.926 ± 0.02 mPa·s
- viscosity (298.15 K, x1 = 0.0004869, x2 = 0.001002): 0.919 ± 0.02 mPa·s
- viscosity (298.15 K, x1 = 0.0004871, x2 = 0.0007272): 0.914 ± 0.02 mPa·s
- viscosity (298.15 K, x1 = 0.0004872, x2 = 0.0004542): 0.907 ± 0.02 mPa·s
- viscosity (298.15 K, x1 = 0.0004873, x2 = 0.000181): 0.903 ± 0.02 mPa·s
- viscosity (303.15 K, x1 = 9.698e-05, x2 = 0.001545): 0.833 ± 0.018 mPa·s
- viscosity (303.15 K, x1 = 9.701e-05, x2 = 0.00127): 0.827 ± 0.018 mPa·s
- viscosity (303.15 K, x1 = 9.703e-05, x2 = 0.0009982): 0.821 ± 0.018 mPa·s
- viscosity (303.15 K, x1 = 9.706e-05, x2 = 0.0007245): 0.816 ± 0.018 mPa·s
- viscosity (303.15 K, x1 = 9.709e-05, x2 = 0.0004525): 0.811 ± 0.018 mPa·s
- viscosity (303.15 K, x1 = 9.711e-05, x2 = 0.0001803): 0.807 ± 0.018 mPa·s
- viscosity (303.15 K, x1 = 0.0002915, x2 = 0.001548): 0.836 ± 0.018 mPa·s
- viscosity (303.15 K, x1 = 0.0002916, x2 = 0.001): 0.824 ± 0.018 mPa·s
- viscosity (303.15 K, x1 = 0.0002916, x2 = 0.001272): 0.83 ± 0.018 mPa·s
- viscosity (303.15 K, x1 = 0.0002917, x2 = 0.0007258): 0.819 ± 0.018 mPa·s
- viscosity (303.15 K, x1 = 0.0002918, x2 = 0.0004533): 0.814 ± 0.018 mPa·s
- viscosity (303.15 K, x1 = 0.0002919, x2 = 0.0001807): 0.809 ± 0.018 mPa·s
- viscosity (303.15 K, x1 = 0.0004867, x2 = 0.001551): 0.843 ± 0.019 mPa·s
- viscosity (303.15 K, x1 = 0.0004868, x2 = 0.001275): 0.836 ± 0.018 mPa·s
- viscosity (303.15 K, x1 = 0.0004869, x2 = 0.001002): 0.831 ± 0.018 mPa·s
- viscosity (303.15 K, x1 = 0.0004871, x2 = 0.0007272): 0.825 ± 0.018 mPa·s
- viscosity (303.15 K, x1 = 0.0004872, x2 = 0.0004542): 0.82 ± 0.018 mPa·s
- viscosity (303.15 K, x1 = 0.0004873, x2 = 0.000181): 0.815 ± 0.018 mPa·s
- viscosity (308.15 K, x1 = 9.698e-05, x2 = 0.001545): 0.75 ± 0.017 mPa·s
- viscosity (308.15 K, x1 = 9.701e-05, x2 = 0.00127): 0.744 ± 0.017 mPa·s
- viscosity (308.15 K, x1 = 9.703e-05, x2 = 0.0009982): 0.739 ± 0.016 mPa·s
- viscosity (308.15 K, x1 = 9.706e-05, x2 = 0.0007245): 0.734 ± 0.016 mPa·s
- viscosity (308.15 K, x1 = 9.709e-05, x2 = 0.0004525): 0.729 ± 0.016 mPa·s
- viscosity (308.15 K, x1 = 9.711e-05, x2 = 0.0001803): 0.725 ± 0.016 mPa·s
- viscosity (308.15 K, x1 = 0.0002915, x2 = 0.001548): 0.753 ± 0.017 mPa·s
- viscosity (308.15 K, x1 = 0.0002916, x2 = 0.001): 0.742 ± 0.017 mPa·s
- viscosity (308.15 K, x1 = 0.0002916, x2 = 0.001272): 0.747 ± 0.017 mPa·s
- viscosity (308.15 K, x1 = 0.0002917, x2 = 0.0007258): 0.736 ± 0.016 mPa·s
- viscosity (308.15 K, x1 = 0.0002918, x2 = 0.0004533): 0.732 ± 0.016 mPa·s
- viscosity (308.15 K, x1 = 0.0002919, x2 = 0.0001807): 0.727 ± 0.016 mPa·s
- viscosity (308.15 K, x1 = 0.0004867, x2 = 0.001551): 0.759 ± 0.017 mPa·s
- viscosity (308.15 K, x1 = 0.0004868, x2 = 0.001275): 0.753 ± 0.017 mPa·s
- viscosity (308.15 K, x1 = 0.0004869, x2 = 0.001002): 0.748 ± 0.017 mPa·s
- viscosity (308.15 K, x1 = 0.0004871, x2 = 0.0007272): 0.743 ± 0.017 mPa·s
- viscosity (308.15 K, x1 = 0.0004872, x2 = 0.0004542): 0.737 ± 0.016 mPa·s
- viscosity (308.15 K, x1 = 0.0004873, x2 = 0.000181): 0.732 ± 0.016 mPa·s
- viscosity (313.15 K, x1 = 9.698e-05, x2 = 0.001545): 0.651 ± 0.015 mPa·s
- viscosity (313.15 K, x1 = 9.701e-05, x2 = 0.00127): 0.648 ± 0.015 mPa·s
- viscosity (313.15 K, x1 = 9.703e-05, x2 = 0.0009982): 0.642 ± 0.014 mPa·s
- viscosity (313.15 K, x1 = 9.706e-05, x2 = 0.0007245): 0.637 ± 0.014 mPa·s
- viscosity (313.15 K, x1 = 9.709e-05, x2 = 0.0004525): 0.633 ± 0.014 mPa·s
- viscosity (313.15 K, x1 = 9.711e-05, x2 = 0.0001803): 0.629 ± 0.014 mPa·s
- viscosity (313.15 K, x1 = 0.0002915, x2 = 0.001548): 0.648 ± 0.015 mPa·s
- viscosity (313.15 K, x1 = 0.0002916, x2 = 0.001): 0.639 ± 0.014 mPa·s
- viscosity (313.15 K, x1 = 0.0002916, x2 = 0.001272): 0.644 ± 0.015 mPa·s
- viscosity (313.15 K, x1 = 0.0002917, x2 = 0.0007258): 0.635 ± 0.014 mPa·s
- viscosity (313.15 K, x1 = 0.0002918, x2 = 0.0004533): 0.63 ± 0.014 mPa·s
- viscosity (313.15 K, x1 = 0.0002919, x2 = 0.0001807): 0.625 ± 0.014 mPa·s
- viscosity (313.15 K, x1 = 0.0004867, x2 = 0.001551): 0.664 ± 0.015 mPa·s
- viscosity (313.15 K, x1 = 0.0004868, x2 = 0.001275): 0.659 ± 0.015 mPa·s
- viscosity (313.15 K, x1 = 0.0004869, x2 = 0.001002): 0.654 ± 0.015 mPa·s
- viscosity (313.15 K, x1 = 0.0004871, x2 = 0.0007272): 0.648 ± 0.015 mPa·s
- viscosity (313.15 K, x1 = 0.0004872, x2 = 0.0004542): 0.644 ± 0.015 mPa·s
- viscosity (313.15 K, x1 = 0.0004873, x2 = 0.000181): 0.64 ± 0.014 mPa·s
- viscosity (318.15 K, x1 = 9.698e-05, x2 = 0.001545): 0.564 ± 0.013 mPa·s
- viscosity (318.15 K, x1 = 9.701e-05, x2 = 0.00127): 0.561 ± 0.013 mPa·s
- viscosity (318.15 K, x1 = 9.703e-05, x2 = 0.0009982): 0.557 ± 0.013 mPa·s
- viscosity (318.15 K, x1 = 9.706e-05, x2 = 0.0007245): 0.551 ± 0.013 mPa·s
- viscosity (318.15 K, x1 = 9.709e-05, x2 = 0.0004525): 0.547 ± 0.013 mPa·s
- viscosity (318.15 K, x1 = 9.711e-05, x2 = 0.0001803): 0.543 ± 0.012 mPa·s
- viscosity (318.15 K, x1 = 0.0002915, x2 = 0.001548): 0.56 ± 0.013 mPa·s
- viscosity (318.15 K, x1 = 0.0002916, x2 = 0.001): 0.552 ± 0.013 mPa·s
- viscosity (318.15 K, x1 = 0.0002916, x2 = 0.001272): 0.556 ± 0.013 mPa·s
- viscosity (318.15 K, x1 = 0.0002917, x2 = 0.0007258): 0.547 ± 0.013 mPa·s
- viscosity (318.15 K, x1 = 0.0002918, x2 = 0.0004533): 0.544 ± 0.012 mPa·s
- viscosity (318.15 K, x1 = 0.0002919, x2 = 0.0001807): 0.539 ± 0.012 mPa·s
- viscosity (318.15 K, x1 = 0.0004867, x2 = 0.001551): 0.577 ± 0.013 mPa·s
- viscosity (318.15 K, x1 = 0.0004868, x2 = 0.001275): 0.572 ± 0.013 mPa·s
- viscosity (318.15 K, x1 = 0.0004869, x2 = 0.001002): 0.568 ± 0.013 mPa·s
- viscosity (318.15 K, x1 = 0.0004871, x2 = 0.0007272): 0.563 ± 0.013 mPa·s
- viscosity (318.15 K, x1 = 0.0004872, x2 = 0.0004542): 0.558 ± 0.013 mPa·s
- viscosity (318.15 K, x1 = 0.0004873, x2 = 0.000181): 0.554 ± 0.013 mPa·s
